The values that follow come from patent publication US8835462B2, “Macrocyclic picolinamides as fungicides” (Dow AgroSciences LLC, priority 2012, dated 2014).

One series deals with Phakopsora pachyrhizi. The experiment in a line: Asian soybean rust (PHAKPA) fungicidal activity. As to conditions: 25 ppm; for Disease Control PHAKPA 1 DP: 1 Day Protectant; for Disease Control PHAKPA 2 DC: 2 Day Curative. Type of series: in vivo. On the procedure:
Evaluation of Fungicidal Activity: Asian Soybean Rust (Phakopsora Pachyrhizi; Bayer Code […]) Technical grades of materials were dissolved in acetone, which were then mixed with nine volumes of water containing 0.011% Tween 20. The fungicide solutions were applied onto soybean seedlings using an automated booth sprayer to run-off. All sprayed plants were allowed to air dry prior to further handling. Soybean plants (variety Williams 82) were grown in soil-less Metro mix, with one plant per pot. Two weeks old seedlings were used for testing. Plants were inoculated either 2 days prior to or 1 day after fungicide treatments. Plants were incubated for 24 h in a dark dew room at 22° C. and 100% RH then transferred to a growth room at 23° C. for disease to develop. Disease severity was assessed on the sprayed leaves.

For a further series, the system named is Cochliobolus sativus. Description: Spot blotch of barley (COCHSA) fungicidal activity. To be noted: 100 ppm, 1 Day Protectant. Type of series: in vivo. The protocol:
Technical grades of materials were dissolved in acetone, which were then mixed with nine volumes of water containing 110 ppm Triton X-100. The fungicide solutions were applied onto wheat seedlings using an automated booth sprayer to run-off. All sprayed plants were allowed to air dry prior to further handling. Wheat plants (variety Yuma) were grown from seed in a greenhouse in 50% mineral soil/50% soil-less Metro mix until the first leaf was fully emerged, with 7-10 seedlings per pot. These plants were inoculated with an aqueous spore suspension of Septoria tritici either prior to or after fungicide treatments. After inoculation the plants were kept in 100% relative humidity (one day in a dark dew chamber followed by two to three days in a lighted dew chamber at 20° C.) to permit spores to germinate and infect the leaf. The plants were then transferred to a greenhouse set at 20° C. for disease to develop. When disease symptoms were fully expressed on the 1st leaves of untreated plants, infection levels were assessed on a scale of 0 to 100 percent disease severity. Percent disease control was calculated using the ratio of disease severity on treated plants relative to untreated plants. Evaluation of Fungicidal Activity: Spot Blotch of Barley (Cochliobolus Sativus; Bayer Code COCHSA) Barley seedlings (variety Harrington) were propagated in soil-less Metro mix, with each pot having 8 to 12 plants, and used for testing when first leaf was fully emerged. Test plants were inoculated with a spore suspension of Cochliobolus sativus 24 hr after fungicide treatments. After inoculation the plants were placed in a dark dew room with 100% RH and temperature of 22° C. for 48 hr. The plants were then kept in a greenhouse set at 24° C. until disease fully developed. Fungicide formulation, application and disease assessment followed the procedures as described in the Example A.

Another series concerns Rhyncosporium secalis. The experiment in a line: Barley scald (RHYNSE) fungicidal activity. Type of series: in vivo. To be noted: 100 ppm, 1 Day Protectant. The protocol: Technical grades of materials were dissolved in acetone, which were then mixed with nine volumes of water containing 110 ppm Triton X-100. The fungicide solutions were applied onto wheat seedlings using an automated booth sprayer to run-off. All sprayed plants were allowed to air dry prior to further handling. Wheat plants (variety Yuma) were grown from seed in a greenhouse in 50% mineral soil/50% soil-less Metro mix until the first leaf was fully emerged, with 7-10 seedlings per pot. These plants were inoculated with an aqueous spore suspension of Septoria tritici either prior to or after fungicide treatments. After inoculation the plants were kept in 100% relative humidity (one day in a dark dew chamber followed by two to three days in a lighted dew chamber at 20° C.) to permit spores to germinate and infect the leaf. The plants were then transferred to a greenhouse set at 20° C. for disease to develop. When disease symptoms were fully expressed on the 1st leaves of untreated plants, infection levels were assessed on a scale of 0 to 100 percent disease severity. Percent disease control was calculated using the ratio of disease severity on treated plants relative to untreated plants. Evaluation of Fungicidal Activity: Barley Scald (Rhyncosporium Secalis; Bayer Code […]) Barley seedlings (variety Harrington) were propagated in soil-less Metro mix, with each pot having 8 to 12 plants, and used in the test when first leaf was fully emerged. Test plants were inoculated by an aqueous spore suspension of Rhyncosporium secalis 24 hr after fungicide treatments. After inoculation the plants were kept in dew room at 20° C. with 100% relative humidity for 48 hr. The plants were then transferred to a greenhouse set at 20° C. for disease to develop. Fungicide formulation, application and disease assessment on the sprayed leaves followed the procedures as described in the Example A.

`COc1ccnc(C(=O)N[C@H]2COC[C@H](Cc3ccccc3)[C@@H](OCC(C)C)[C@H](C)OC2=O)c1O` [Compound 2, N-((3S,7S,8R,9S)-7-benzyl-8-isobutoxy-9-methyl-2-oxo-1,5-dioxonan-3-yl)-3-hydroxy-4-methoxypicolinamide] showed a melting point of 126 to 128 °C. Further, in the series on Phakopsora pachyrhizi, the “Disease Control PHAKPA 1 DP” value is listed as “A (80-100)” and the “Disease Control PHAKPA 2 DC” value is “A (80-100)”.

`COc1ccnc(C(=O)N[C@H]2COC[C@H](Cc3ccccc3)[C@@H](OCC(C)C)[C@H](C)OC2=O)c1OCOC(=O)C(C)C` [Compound 3] showed a melting point of 54 to 58 °C. Besides, the “Disease Control COCHSA 1DP” value with Cochliobolus sativus is reported as “A (80-100)”. Also, in the series on Phakopsora pachyrhizi, the “Disease Control PHAKPA 1 DP” value is reported as “A (80-100)” and the “Disease Control PHAKPA 2 DC” value is on record as “A (80-100)”.

For `COc1ccnc(C(=O)N[C@H]2COC[C@H](Cc3ccccc3)[C@@H](OCC(C)C)[C@H](C)OC2=O)c1OCOC(=O)C(C)(C)C` [Compound 7], in the series on Cochliobolus sativus, the “Disease Control COCHSA 1DP” value is “B (More than 0-Less than 80)”. Also, in the series on Phakopsora pachyrhizi, the “Disease Control PHAKPA 1 DP” value is “A (80-100)” and the “Disease Control PHAKPA 2 DC” value is listed as “A (80-100)”.

In the case of `COc1ccnc(C(=O)N[C@H]2COC[C@H](Cc3ccccc3)[C@@H](OCC(C)C)[C@H](C)OC2=O)c1OCOC(C)=O` [Compound 8, (2-((3S,7S,8R,9S)-7-benzyl-8-isobutoxy-9-methyl-2-oxo-1,5-dioxonan-3-ylcarbamoyl)-4-methoxypyridin-3-yloxy)methyl acetate], the “Disease Control COCHSA 1DP” value in the series on Cochliobolus sativus is reported as “B (More than 0-Less than 80)”. Further, in the series on Rhyncosporium secalis, the “Disease Control RHYNSE 1DP” value is on record as “A (80-100)”. In addition, in the series on Phakopsora pachyrhizi, the “Disease Control PHAKPA 1 DP” value is “A (80-100)” and the “Disease Control PHAKPA 2 DC” value is “A (80-100)”.

Turning to `COc1ccnc(C(=O)N[C@H]2COC[C@H](Cc3ccccc3)[C@@H](OCC(C)C)[C@H](C)OC2=O)c1OC(C)=O` [Compound 9, 2-(((3S,7S,8R,9S)-7-benzyl-8-isobutoxy-9-methyl-2-oxo-1,5-dioxonan-3-yl)carbamoyl)-4-methoxypyridin-3-yl acetate], the “Disease Control COCHSA 1DP” value with Cochliobolus sativus is “B (More than 0-Less than 80)”. Moreover, in the series with Phakopsora pachyrhizi, the “Disease Control PHAKPA 1 DP” value is recorded as “A (80-100)” and the “Disease Control PHAKPA 2 DC” value is “A (80-100)”.

As for `COc1ccnc(C(=O)N[C@H]2COC[C@H](Cc3ccccc3)[C@@H](OCC(C)C)[C@H](C)OC2=O)c1OC(=O)OC(C)C` [Compound 10, 2-(((3S,7S,8R,9S)-7-benzyl-8-isobutoxy-9-methyl-2-oxo-1,5-dioxonan-3-yl)carbamoyl)-4-methoxypyridin-3-yl isopropyl carbonate], the “Disease Control COCHSA 1DP” value in the series on Cochliobolus sativus was “B (More than 0-Less than 80)”. Moreover, in the series on Phakopsora pachyrhizi, the “Disease Control PHAKPA 1 DP” value was “A (80-100)” and the “Disease Control PHAKPA 2 DC” value is “A (80-100)”.

For `COc1ccnc(C(=O)N[C@H]2COC[C@H](Cc3ccccc3)[C@@H](OC3CCCC3)[C@H](C)OC2=O)c1OC(C)=O` [Compound 107], in the series with Rhyncosporium secalis, the “Disease Control RHYNSE 1DP” value was “A (80-100)”.

Regarding `COc1ccnc(C(=O)N[C@H]2COC[C@H](Cc3ccccc3)[C@@H](OC3CCCC3)[C@H](C)OC2=O)c1OCOC(=O)C(C)C` [Compound 108], the “Disease Control RHYNSE 1DP” value with Rhyncosporium secalis is on record as “A (80-100)”. Moreover, in the series on Phakopsora pachyrhizi, the “Disease Control PHAKPA 1 DP” value is listed as “A (80-100)” and the “Disease Control PHAKPA 2 DC” value is listed as “A (80-100)”.

The melting point is the temperature, or range, at which the solid turns liquid.
